In the NIST ThermoML archive (doi:10.1021/je800786k):

Conditions: Liquid, Vibrating tube method

CCCCCCC(C)N (stereo not given) [1-methylheptylamine]
mass density [kg/m3]
Conditions | 353.15 K | 363.15 K | 373.15 K | 383.15 K | 393.15 K | 403.15 K
100 kPa | 723.2 | 714.7 | 706 | 697.6 | 689 | 680.1
10000 kPa | 733 | 724.9 | 717.2 | 709.4 | 701.6 | 693.5
20000 kPa | 741.6 | 734 | 726.6 | 719.5 | 712.3 | 705
30000 kPa | 749.3 | 742 | 735.2 | 728.5 | 721.7 | 714.8
40000 kPa | 756.2 | 749.3 | 742.9 | 736.4 | 730 | 723.5
50000 kPa | 762.7 | 756.1 | 749.9 | 743.8 | 737.9 | 731.5
60000 kPa | 768.7 | 762.4 | 756.8 | 750.6 | 744.9 | 738.7
70000 kPa | 774.4 | 768.3 | 762.8 | 756.8 | 751.4 | 745.4
80000 kPa | 779.7 | 773.8 | 768.5 | 762.7 | 757.5 | 751.6
90000 kPa | 784.7 | 779 | 773.8 | 768.1 | 763.2 | 757.5
100000 kPa | 789.5 | 783.9 | 778.9 | 773.3 | 768.6 | 763.1
110000 kPa | 794.1 | 788.5 | 783.7 | 778.3 | 773.6 | 768.3
120000 kPa | 798.4 | 793 | 788.3 | 783 | 778.4 | 773.2
130000 kPa | 802.3 | 797.3 | 792.8 | 787.5 | 782.8 | 777.9
140000 kPa | 806.3 | 801.4 | 796.8 | 791.8 | 787.2 | 782.4
